Data from PMC8379256, “A xanthene derivative, DS20060511, attenuates glucose intolerance by inducing skeletal muscle-specific GLUT4 translocation in mice” (Communications Biology, 2021).
“And” between values parts separate entries of the source, which are not always exact repeats. Identical values can stand only once.

Experiments:
[1] = system: IRβ, IRS1, Akt (Ser473), AS160; test: Phosphorylation of IRβ, IRS1, Akt and AS160 in triceps surae muscle (immunoblot); assay type: in vivo, mouse; settings: skeletal muscle, DS20060511 10 mg kg−1 or insulin 5 U kg−1; for phosphorylation of IRβ-subunit and IRS1: Fig. 4a; for phosphorylation of Akt and AS160: Fig. 4b
Description: The tissue sample was homogenized with a Polytron homogenizer and lysed in a lysis buffer (25 mM Tris-HCl, pH 7.4, 100 mM NaF, 50 mM Na4P2O7, 10 mM EGTA, 10 mM EDTA, 10 mM Na3VO4, 1 mM PMSF, and 1% NP-40) on ice, and the lysate was centrifuged at 17,860 × g for 10 min at 4 °C. The supernatant was collected and the protein concentrations were determined by BCA assay (Thermo Fisher Scientific). Immunoprecipitation of IRβ and IRS1 was performed as described previously, using specific antibodies against IRβ (sc-711, Santa Cruz Biotechnology, Dallas, TX), IRS1 (06-248, Merck Millipore, Burlington, MA), and for detection of phosphotyrosine (05-321, Merck Millipore). Five milligrams of the extracts were incubated with specific antibodies against IRS1 for 1 h at 4 °C. Then, protein G-Sepharose was added, followed by incubation for 2 h at 4 °C. After washing three times, the immunocomplexes were subjected to immunoblotting.
Phosphorylated or total protein of IRβ and IRS1 was resolved on 7% SDS-PAGE and analyzed using specific antibodies against IRβ, IRS1, and phosphotyrosine. Analyses were also conducted for phosphorylated Akt (1:2000), Akt (1:2,000), AS160 (1:1,000), phospho-AS160 (1:1,000), AMPKα (1:1,000), phospho-AMPKα (1:1,000), GLUT4 (1:200), Na,K-ATPaseα (1:1,000), GAPDH (1:1,000) by immunoblotting with specific antibodies after the tissue lysates were resolved on SDS-PAGE and transferred to a PVDF membrane using Trans-Blot Turbo transfer system (Bio-Rad Laboratories, Hercules, CA). Bound antibodies were detected with HRP-conjugated secondary antibodies using ECL detection reagents (GE Healthcare, Chicago, IL).

isolated skeletal muscle = test: 2-DG uptake in muscles isolated from NC-fed and HFD-fed mice; parameters: species or system mouse; settings: for Raio: 2-DG uptake in isolated muscles; for Raio / 2DOG Trn / IC 2DOG: individual muscles; for 2DOG Trn / IC 2DOG: isolated muscles
Description: Fig. 8 Acute and chronic DS20060511 treatment improves glucose intolerance in HFD-fed and db/db mice. a Blood glucose and plasma insulin levels during an oral GTT in normal-chow (NC)- and high-fat diet (HFD)-fed mice (n = 5). Vehicle or DS20060511 (30 mg kg^−1) was given orally 15 min before the oral glucose administration (1.5 g kg^−1). Values shown are means ± SEM. *P < 0.05, **P < 0.01, ***P < 0.001 vs. the HFD vehicle by the t-test. b Effects of 10 μM DS20060511 and 100 nM insulin on 2-DG uptake in muscles isolated from NC-fed (n = 6) and HFD-fed (n = 5) mice. Values shown are means ± SEM. **P < 0.01 by one-way ANOVA followed by Tukey’s test. c, d Changes in the blood glucose levels and AUC on day 1 and day 28 during refeeding (n = 6) in db/db mice treated chronically with DS20060511 (10 mg kg^−1 day^−1). Values shown are means ± SEM. *P < 0.05, **P < 0.01, ***P < 0.001 vs. vehicle by the t-test. e Change of the HbA1c levels in the db/db (n = 6) mice at 4 weeks. Values shown are means ± SEM. *P < 0.05 vs. vehicle by the t-test.
C57BL/6 and db/db mice were purchased from CLEA Japan, Tokyo, Japan. GLUT4- knockout mice were generated at RIKEN BioResource Center, Tsukuba, Japan, according to a previously described method. eNOS-knockout mice were kindly provided by Dr. Masato Tsutsui[41],[42]. The mice were group-housed under controlled illumination (12:12 h light-dark cycle) and temperature (23 ± 2 °C) conditions and given free access to normal chow and water, unless otherwise specified. The HFD-fed obese mice were prepared by feeding C57BL/6 mice a HFD for at least 8 weeks from 6 weeks of age. […] Male mice were used for all the experiments in this study. The animal care and experimental procedures used in the study were approved by The University of Tokyo Animal Care Committee (Approval number: 27-3), and the study was carried out in accordance with the Animal Experimentation Guidelines of Daiichi Sankyo Co., Ltd (Approved number: 20000411).
The soleus or EDL muscle was removed from anesthetized mice (isoflurane anesthesia) that had been denied access to food overnight, and incubated with oxygenated (95% O2/5% CO2) Krebs-Henseleit Bicarbonate (KHB) buffer (118.1 mM NaCl, 4.7 mM KCl, 1.1 mM KH2PO4, 1.2 mM MgSO4, 2.5 mM CaCl2, and 25 mM NaHCO3, pH7.4) in the presence of 11.1 mM glucose at 37 °C. The muscle specimens were then treated with the indicated concentrations of the compounds in KHB buffer containing 11.1 mM glucose and 8 mM mannitol for 10 min at 37 °C. Thereafter, the muscles were rinsed with KHB buffer containing 8 mM mannitol and the compounds for 5 min at 37 °C. Lastly, the muscles were treated with the compounds in KHB buffer containing 1 mM 2-DG (with 0.3 μCi mL^−1 [^3H]-2-DG) and 8 mM mannitol (with 0.03 μCi mL^−1 [^14C]-mannitol) for 10 min at 37 °C. After the muscle specimens were washed, they were lysed with 1 N NaOH and neutralized with 1 N HCl. The ^14C- and ^3H-specific activities were counted with a liquid scintillation counter. The specific uptake of 2-DG was calculated by subtracting the nonspecific uptake of mannitol from the total 2-DG uptake. To investigate the effects of muscle contraction, muscle contraction was induced by electrical stimulation with 5 Hz (1 ms pulse duration, 100 V) for 10 min (SEN-5201, Nihon Koden, Tokyo, Japan).

[2] = HFD, DS20060511 0 μM, Insulin 100 nM
[3] = NC, DS20060511 0 μM, Insulin 100 nM
[4] = HFD, DS20060511 10 μM plus Insulin 100 nM

| Compound | phosphorylation of IRβ-subunit and IRS1 [1] | phosphorylation of Akt and AS160 [1] | Raio (isolated skeletal muscle; [2]) | Raio (isolated skeletal muscle; [3]) | 2DOG Trn (isolated skeletal muscle; HFD, DS20060511 0 μM, Insulin 100 nM, incubation time 10 min) | 2DOG Trn (isolated skeletal muscle; [2]) | IC 2DOG (isolated skeletal muscle; [2]) | 2DOG Trn (isolated skeletal muscle; NC, DS20060511 0 μM, Insulin 100 nM, incubation time 10 min) | 2DOG Trn (isolated skeletal muscle; [3]) | IC 2DOG (isolated skeletal muscle; [3]) | Raio (isolated skeletal muscle; [4]) | suppression of insulin-induced 2-DG uptake in isolated skeletal muscle (isolated skeletal muscle; HFD-fed mice, 10 μM DS20060511, 100 nM insulin) | 2DOG Trn (isolated skeletal muscle; HFD, DS20060511 10 μM plus Insulin 100 nM, incubation time 10 min) | 2DOG Trn (isolated skeletal muscle; [4]) | IC 2DOG (isolated skeletal muscle; [4]) |
| --- | --- | --- | --- | --- | --- | --- | --- | --- | --- | --- | --- | --- | --- | --- | --- |
| Insulin: Insulin (Humulin, Eli Lilly) in the in vivo experiments; Insulin solution human (I9278, Sigma–Aldrich) in the in vitro experiments | phosphorylated | induced phosphorylation of Akt and AS160 | 1.28 and 1.46 and 1.65 and 1.16 and 0.85 | 2.15 and 2.48 and 1.82 and 1.55 and 1.68 and 2.28 | 25.5 µM/min and 29.1 µM/min and 32.9 µM/min and 23.1 µM/min and 14.4 µM/min | 255 nmol/mL and 291 nmol/mL and 329 nmol/mL and 324 nmol/mL and 259 nmol/mL | 163 nmol/g and 186 nmol/g and 216 nmol/g and 214 nmol/g and 174 nmol/g | 27.4 µM/min and 29.7 µM/min and 40.3 µM/min and 38.9 µM/min and 44.9 µM/min and 32.9 µM/min | 274 nmol/mL and 297 nmol/mL and 403 nmol/mL and 389 nmol/mL and 449 nmol/mL and 329 nmol/mL | 192 nmol/g and 210 nmol/g and 264 nmol/g and 259 nmol/g and 303 nmol/g and 223 nmol/g |  |  |  |  |  |
| COc1ccc2c(C)c(C(=O)O)ccc2c1C1C2=C(CC(C)(C)CC2=O)OC2=C1C(=O)CC(C)(C)C2 [DS20060511] | no such phosphorylation of these proteins was observed | no such effect |  |  |  |  |  |  |  |  | 2.30 and 2.20 and 2.00 and 1.46 and 1.88 | completely restored | 45.7 µM/min and 43.8 µM/min and 39.8 µM/min and 37.4 µM/min | 457 nmol/mL and 438 nmol/mL and 436 nmol/mL and 374 nmol/mL | 292 nmol/g and 276 nmol/g and 268 nmol/g and 283 nmol/g and 257 nmol/g |
